Like-named read-outs stand apart in the source and are kept apart here. Square brackets hold non-standard residues; d marks the D form. Peptide text beside a SMILES is read from it.
Experiments:
p53 null sarcoma cells [1] = assay: Lung colonization of intravenously injected p53 null sarcoma cells in SCID mice; assay type: in vivo, mouse; settings: 5 mg/kg intraperitoneal every other day, 10 injections
Method: (§1) These experiments were performed to determine if modifying the termini conferred any advantages on these peptides when administered to an animal. Both wild type ARF 26-44 (rrrrrrrrrKFVRSRRPRTASCALAFVN) (SEQ ID NO 10) and mutant ARF 37-44 (rrrrrrrrrSCALAFVN) (SEQ ID NO 21) peptides were synthesized by Genemed Synthesis Inc. (San Antonio, Tex.). The N-terminus of each peptide was fused with nine D-Arg(r) residues. Both wild type and mutant peptides were blocked with amidation on C-terminus and acetylation on N-terminus. For sarcoma cells, mice were treated with 5 mg/kg body weight of peptide every other day for 10 times. For lymphoma cells, mice were treated with 2.5 mg/kg body weight of peptide every other day for 10 times.
To test the therapeutic effect of the ARF-peptide on p53 null tumors in vivo, p53 null lymphoma/sarcoma cells were introduced into the circulation of SCID mice through intravenous injection. ICR SCID mice were obtained from Taconic Farms (Germantown, N.Y.). Both p53 null sarcoma and lymphoma cells were stably transduced before injection with lentivirus carrying a gene conferring luciferase expression. Specifically, cells were stably transduced with pFU-L2G luciferase construct obtained from Sanjiv Sam Gambhir (M. D., Ph.D) of Stanford University as optimized by Dr. Huiping Liu (Liu et al., Proc Natl Acad Sci USA, 107: 18115-18120). This construct enabled expression of both the bioluminescence and green fluorescence protein. eGFP positive cells were sorted by Beckman Coulter MoFlo. 3×10^6 cells were suspended in cold PBS and injected through the tail vein of SCID mice. Live animal imaging was performed using an IVIS Spectrum optical imaging machine (Caliper Life Sciences, Alameda, Calif.). […] Mice were randomized into three groups and were treated with PBS, mutant-peptide or the wild type ARF-peptide for 10 injections every other day by intraperitoneal injection. […] The mice were sacrificed and lung sections were analyzed for tumor colonies. […]

[2] = tested on: p53 null thymic lymphoma cells; assay: Kidney colonization of intravenously injected p53 null thymic lymphoma cells in SCID mice; assay type: in vivo, mouse; settings: 2.5 mg/kg intraperitoneal every other day, 10 injections
Method: as §1
To test the therapeutic effect of the ARF-peptide on p53 null tumors in vivo, p53 null lymphoma/sarcoma cells were introduced into the circulation of SCID mice through intravenous injection. ICR SCID mice were obtained from Taconic Farms (Germantown, N.Y.). Both p53 null sarcoma and lymphoma cells were stably transduced before injection with lentivirus carrying a gene conferring luciferase expression. Specifically, cells were stably transduced with pFU-L2G luciferase construct obtained from Sanjiv Sam Gambhir (M. D., Ph.D) of Stanford University as optimized by Dr. Huiping Liu (Liu et al., Proc Natl Acad Sci USA, 107: 18115-18120). This construct enabled expression of both the bioluminescence and green fluorescence protein. eGFP positive cells were sorted by Beckman Coulter MoFlo. 3×10^6 cells were suspended in cold PBS and injected through the tail vein of SCID mice. Live animal imaging was performed using an IVIS Spectrum optical imaging machine (Caliper Life Sciences, Alameda, Calif.). […] Mice were randomized into three groups and were treated with PBS, mutant-peptide or the wild type ARF-peptide for 10 injections every other day by intraperitoneal injection. […] The mice were sacrificed and lung sections were analyzed for tumor colonies. […] For the p53 null thymic lymphoma cells, metastatic growth in kidney was observed, consistent with murine thymic lymphoma cells having a tendency to colonize kidney, liver and spleen (Aoudjit et al., 1998, Blood, 91: 623-629).

S2 cells = settings: 24 hours
Method: TUNEL assay was used to measure apoptosis in S2 cells treated with WT-blocked, mutant-blocked or WT-unblocked (D-Arg)9-p19^ARF 26-44 peptides. (D-Arg)9-p19^ARF 26-44 peptide treatment of cells was performed in 8-well chamber slides for TUNEL staining. On Day 0, 20,000 cells per well were seeded in the 8-well chamber slides. On Day 1, slides were replenished with fresh media containing one of the following concentrations of either WT-blocked, mutant-blocked or WT-unblocked (D-Arg)9-p19^ARF 26-44 peptides: 10, 15, 25, 30, 40 and 70 μM for 24 hours. On Day 2, TUNEL staining was performed following the manufacture's protocol (ApopTag® Fluorescein In Situ Apoptosis Detection Kit from CHEMICON® International, S7110). The percent of apoptosis of S2 cells (±SD) was measured by counting the number of TUNEL-positive cells (green fluorescence) per 1,000 nuclei as visualized by DAPI (blue fluorescence) counterstaining. The experiment was repeated in a second experiment using the same protocol. Statistical analysis and EC50 calculation were performed using GraphPad Prism software.

p53 null sarcoma cells [3] = assay: In vitro peptide treatment of p53 null sarcoma cells (viability, TUNEL); assay type: cell-based, mouse; settings: 24 hours
[4] = tested on: p53 null thymic lymphoma cell lines L1 and L2; assay: In vitro peptide treatment of p53 null thymic lymphoma cells (viability, TUNEL); assay type: cell-based, mouse; settings: one day after treatment

For `CC(=O)N[C@H](CCCNC(=N)N)C(=O)N[C@H](CCCNC(=N)N)C(=O)N[C@H](CCCNC(=N)N)C(=O)N[C@H](CCCNC(=N)N)C(=O)N[C@H](CCCNC(=N)N)C(=O)N[C@H](CCCNC(=N)N)C(=O)N[C@H](CCCNC(=N)N)C(=O)N[C@H](CCCNC(=N)N)C(=O)N[C@H](CCCNC(=N)N)C(=O)N[C@@H](CCCCN)C(=O)N[C@@H](Cc1ccccc1)C(=O)N[C@H](C(=O)N[C@@H](CCCNC(=N)N)C(=O)N[C@@H](CO)C(=O)N[C@@H](CCCNC(=N)N)C(=O)N[C@@H](CCCNC(=N)N)C(=O)N1CCC[C@H]1C(=O)N[C@@H](CCCNC(=N)N)C(=O)N[C@H](C(=O)N[C@@H](C)C(=O)N[C@@H](CO)C(=O)N[C@@H](CS)C(=O)N[C@@H](C)C(=O)N[C@@H](CC(C)C)C(=O)N[C@@H](C)C(=O)N[C@@H](Cc1ccccc1)C(=O)N[C@H](C(=O)N[C@@H](CC(N)=O)C(N)=O)C(C)C)[C@@H](C)O)C(C)C` [WT Blocked, rrrrrrrrrKFVRSRRPRTASCALAFVN] (Ac-[dR][dR][dR][dR][dR][dR][dR][dR][dR]KFVRSRRPRTASCALAFVN-NH2), the “Number of lung tumor colonies larger than 100 μm×100 μm” value (p53 null sarcoma cells [1]) was “A reduced number of tumor colonies”, the “Tumors on the surface of the lungs” value (p53 null sarcoma cells [1]) was “fewer tumors were observed on the surface of the lungs” and the “Luciferase signal from mice” value (p53 null sarcoma cells [1]; 20 days after inoculation) was “significantly reduced”. The “Kidney tumor mass at sacrifice” value [2] was “retained their original size and structure, with only a small white mass beginning to build up on the surface of the kidney”, the “Luciferase signal from colonized lymphoma cells” value ([2]; around 20 days after inoculation) was “emitted very little fluorescence” and the “% of TUNEL Positive S2 Cells, Mean” value (S2 cells; Experiment 1, 10 μM/Well) was 0.46%. For the same compound, the “% of TUNEL Positive S2 Cells, Mean” value (S2 cells; Experiment 1, 25 μM/Well) was 20.27%, the “% of TUNEL Positive S2 Cells, Mean” value (S2 cells; Experiment 1, 30 μM/Well) was 57.78% and the “% of TUNEL Positive S2 Cells, Mean” value (S2 cells; Experiment 1, 40 μM/Well) was 98.48%. For the same compound, the “% of TUNEL Positive S2 Cells, Mean” value (S2 cells; Experiment 2, 10 μM/Well) was 12.91%, the “% of TUNEL Positive S2 Cells, Mean” value (S2 cells; Experiment 2, 15 μM/Well) was 13.6% and the “% of TUNEL Positive S2 Cells, Mean” value (S2 cells; Experiment 2, 25 μM/Well) was 39.48%. The “% of TUNEL Positive S2 Cells, Mean” value (S2 cells; Experiment 2, 30 μM/Well) was 47.52%, the “% of TUNEL Positive S2 Cells, Mean” value (S2 cells; Experiment 2, 40 μM/Well) was 70.17% and the “Apoptosis induction compared between peptides (TUNEL)” value (S2 cells; S2 cells, 10-70 μM) was “induced significantly higher apoptosis compared to WT-unblocked and mutant-blocked”. For the same compound, the “Viability and apoptosis (TUNEL) after peptide treatment” value (p53 null sarcoma cells [3]) was “A similar effect was observed in p53 null sarcoma cells”, the “Apoptosis of cells after peptide treatment” value [4] was “underwent apoptosis” and the “Number of viable cells versus mutant-peptide or PBS” value [4] was “much less”.

From patent publication US8906860B2, “Methods and compositions inhibiting tumor cell proliferation” (The Board of Trustees of the University of Illinois, priority 2011, dated 2014)
